The text below walks through data of PubChem BioAssay (NCI).

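Where inhibition never reached the appropriate level, the endpoint shown equals the highest concentration tested. Otherwise, values were interpolated linearly from a five-concentration, 48-hour dose response in 96-well plates. Definition used: TGI = concentration required for complete inhibition of growth.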

Some test systems named below: SNB-19 CNS; SW-620 colon; 786-0 renal; SR leukemia; CCRF-CEM leukemia; MCF7 breast; SK-OV-3 ovarian; HCT-116 colon; MDA-MB-435; HL-60(TB) leukemia; UACC-257 melanoma; K-562 leukemia; RXF 393 renal.
Common to all, as to assay: inhibition of tumour cell growth, NCI panel, 48 h

For the compound `CCN(CC)c1ccc2cc(-c3nnc(-c4ccccc4O)o3)c(=O)oc2c1`, the TGI in the assay with SNB-19 CNS is 26.9 µM; with SW-620 colon it was 26.9 µM; in the assay with 786-0 renal it was 21.9 µM; in the assay with SR leukemia it was 33.7 µM; in the assay with CCRF-CEM leukemia it was 8.63 µM; in the assay on MCF7 breast it was more than 100 µM. Moreover, the TGI in the assay on SK-OV-3 ovarian is more than 100 µM; in the assay on HCT-116 colon, 21.9 µM; in the assay with MDA-MB-435, 32.7 µM; with HL-60(TB) leukemia it was 22.7 µM; with UACC-257 melanoma, 35.1 µM; in the assay on K-562 leukemia it was more than 100 µM.
On to `CCCCCCCCCCCCOc1ccc(/C=C/C2=[N+](CCCl)CCO2)cc1`, for which the TGI was more than 100 µM in the assay with SNB-19 CNS; more than 100 µM with SW-620 colon; 42.7 µM with 786-0 renal; 50.9 µM with SR leukemia; more than 100 µM with CCRF-CEM leukemia; more than 100 µM in the assay on MCF7 breast. Further, the TGI was more than 100 µM in the assay with SK-OV-3 ovarian; 33.5 µM in the assay on HCT-116 colon; more than 100 µM in the assay on MDA-MB-435; 28.8 µM in the assay with HL-60(TB) leukemia; more than 100 µM in the assay with UACC-257 melanoma; more than 100 µM in the assay on K-562 leukemia.
With `COc1cc([C@@]23OC[C@@H]4[C@@H](OC[C@@H]42)c2cc4c(cc23)OCO4)cc(OC)c1OC`, the TGI with SNB-19 CNS was more than 100 µM; with SW-620 colon, more than 100 µM; with 786-0 renal, more than 100 µM; in the assay on SR leukemia it was more than 77 µM; with CCRF-CEM leukemia, more than 100 µM; in the assay on MCF7 breast, more than 100 µM. Further, the TGI in the assay with HCT-116 colon, in the assay on RXF 393 renal, with MDA-MB-435, in the assay on UACC-257 melanoma and in the assay on K-562 leukemia was more than 100 µM throughout.
As for `CC1Cc2cc(O)c(O)cc2-c2cc(O)c(O)cc2CC1C` (stereo unspecified), the TGI in the assay with SNB-19 CNS was 96.2 µM; in the assay with SW-620 colon, 42.5 µM; with 786-0 renal, 39.9 µM; with SR leukemia, 33 µM; with CCRF-CEM leukemia, more than 100 µM; in the assay with MCF7 breast, 37.1 µM. The TGI was more than 100 µM in the assay with SK-OV-3 ovarian; 34.5 µM in the assay with HCT-116 colon; 56.4 µM in the assay on RXF 393 renal; 10.5 µM in the assay on MDA-MB-435; 29.1 µM with UACC-257 melanoma; 39.5 µM in the assay on K-562 leukemia.
With `COC(=O)[C@]1(c2cc3ccccc3[nH]2)CC2CN(CC(=O)N(C)OC)C1CC2(OC)OC` (stereo partly specified), the TGI in the assay on SNB-19 CNS is more than 100 µM; with SW-620 colon, more than 100 µM; in the assay with 786-0 renal, 57.7 µM; with CCRF-CEM leukemia, 32 µM; with MCF7 breast, more than 100 µM; in the assay with SK-OV-3 ovarian, more than 100 µM. The TGI in the assay on HCT-116 colon was 70.7 µM; in the assay with RXF 393 renal, more than 100 µM; in the assay with MDA-MB-435, 91.3 µM; with HL-60(TB) leukemia, 39.5 µM; with UACC-257 melanoma, more than 100 µM; in the assay on K-562 leukemia, 66.4 µM.
`COc1ccc(/C=C/C(=O)CC(=O)/C=C/c2ccc(OC)cc2)cc1`: the TGI in the assay with SNB-19 CNS is more than 100 µM; in the assay on SW-620 colon it was more than 100 µM; with 786-0 renal, 89.1 µM; in the assay on CCRF-CEM leukemia it was 54.9 µM; in the assay on MCF7 breast it was more than 100 µM; in the assay on SK-OV-3 ovarian, more than 100 µM. In addition, the TGI is 34.5 µM in the assay on HCT-116 colon; 80 µM in the assay with RXF 393 renal; more than 100 µM in the assay on MDA-MB-435; 64.5 µM in the assay with HL-60(TB) leukemia; more than 100 µM with UACC-257 melanoma; more than 100 µM in the assay with K-562 leukemia.
Turning to `CCOC(=O)c1nc2ccccc2nc1Oc1cc(OC)c(OC)c(OC)c1`, the TGI in the assay on SNB-19 CNS, in the assay on SW-620 colon, in the assay with 786-0 renal, in the assay with SR leukemia, in the assay with CCRF-CEM leukemia and in the assay on MCF7 breast was more than 100 µM each time. The TGI in the assay on HCT-116 colon, with MDA-MB-435, in the assay on HL-60(TB) leukemia and with UACC-257 melanoma was more than 100 µM each time.
Consider `Cc1ccc(/C=C2\CCCC(CN(C)C)C2=O)cc1` (stereo unspecified), for which the TGI with SNB-19 CNS is 30.1 µM; in the assay on SW-620 colon, 2.88 µM; in the assay with 786-0 renal, 3.23 µM; in the assay on CCRF-CEM leukemia, more than 100 µM; in the assay on MCF7 breast, 1.92 µM; in the assay on SK-OV-3 ovarian it was 26.4 µM. For the same compound, the TGI in the assay on HCT-116 colon was 3.1 µM; in the assay with RXF 393 renal, 3.34 µM; with MDA-MB-435, 3.74 µM; in the assay on HL-60(TB) leukemia it was more than 100 µM; in the assay on UACC-257 melanoma it was 3.99 µM; in the assay with K-562 leukemia it was more than 100 µM.
Regarding `CC(C)C(C/C=C1/CC(CO)(COC(=O)c2ccccc2)OC1=O)C(C)C` (stereo unspecified), the TGI with SNB-19 CNS was 31.1 µM; in the assay on SW-620 colon, 31.9 µM; in the assay with 786-0 renal it was 23.2 µM; in the assay on SR leukemia it was more than 100 µM; in the assay with CCRF-CEM leukemia, 43.5 µM; with MCF7 breast, 39 µM. The TGI is more than 100 µM in the assay with SK-OV-3 ovarian; 29.7 µM in the assay on HCT-116 colon; 31.2 µM in the assay on RXF 393 renal; 95.5 µM with MDA-MB-435; 62.4 µM in the assay with UACC-257 melanoma; 48 µM with K-562 leukemia.
In the case of `C(=N\OCCc1ccccc1)/c1cccnc1`, the TGI in the assay with SNB-19 CNS, in the assay with SW-620 colon, in the assay with 786-0 renal, in the assay with CCRF-CEM leukemia, with MCF7 breast and in the assay on SK-OV-3 ovarian was more than 100 µM throughout. For the same compound, the TGI in the assay with HCT-116 colon, in the assay on RXF 393 renal, with MDA-MB-435, in the assay with HL-60(TB) leukemia, with UACC-257 melanoma and in the assay on K-562 leukemia was more than 100 µM each time.
With `CO[C@@H]1C[C@H]2N3CC[C@@]2(c2cc4c(cc2C3)OCO4)[C@H]2O[C@@H]12`, the TGI in the assay with SNB-19 CNS, in the assay with SW-620 colon, in the assay on 786-0 renal, in the assay on CCRF-CEM leukemia, in the assay on MCF7 breast and in the assay on SK-OV-3 ovarian was more than 100 µM each time. In addition, the TGI in the assay on HCT-116 colon, with RXF 393 renal, in the assay on MDA-MB-435, with HL-60(TB) leukemia, with UACC-257 melanoma and with K-562 leukemia was more than 100 µM each time.
For the compound `O=C(O)CN1CCN(CC(=O)N2CCN(C(=O)OCc3ccccc3)CC2)CCN(CC(=O)O)CCN(CC(=O)N2CCN(C(=O)OCc3ccccc3)CC2)CC1`, the TGI in the assay with SNB-19 CNS, with SW-620 colon, with 786-0 renal, in the assay with SR leukemia, in the assay on CCRF-CEM leukemia and with MCF7 breast was more than 100 µM throughout. Further, the TGI in the assay on SK-OV-3 ovarian, with HCT-116 colon, in the assay on MDA-MB-435, in the assay with HL-60(TB) leukemia, in the assay with UACC-257 melanoma and with K-562 leukemia was more than 100 µM throughout.
